Assay results reported in US20240115557A1, “INHIBITORS OF RNA-GUIDED NUCLEASES AND USES THEREOF” (The Brigham and Women's Hospital, Inc., priority 2022, published 2024).

Biological target: SpCas9 (Streptococcus pyogenes serotype M1, UniProt Q99ZW2)
Experiment: eGFP disruption assay, SpCas9, U2OS.eGFP.PEST cells
Type: cell-based
Conditions: for Normalized Z rep1 / Z score Rep1: replicate 1; for SpCas9 eGFP disruption Rep1: replicate 1, raw readout; for Normalized Z rep2 / Z socre Rep2: replicate 2; for SpCas9 eGFP disruption Rep2: replicate 2, raw readout
From the text: In some embodiments, the secondary assay may be an EGFP disruption assay. In such assay, a quantitative human cell-based reporter assay that enables rapid quantitation of targeted nuclease activities is used to characterize off-target cleavage of Cas9-based RNA guided endonucleases. In this assay, the activities of nucleases targeted to a single integrated EGFP reporter gene can be quantified by assessing loss of fluorescence signal in human U2OS.EGFP cells caused by inactivating frameshift insertion/deletion (indel) mutations introduced by error prone non-homologous end-joining (NHEJ) repair of nuclease-induced double-stranded breaks (DSBs).
In one protocol, U2OS.EGFP cells harboring a single integrated copy of an EGFP-PEST fusion gene are cultured (see e.g., Reyon et al., Nat Biotech 30, 460-465 (2012), which is herein incorporated by reference in its entirety). For transfections, 200,000 cells are Nucleofected with gRNA expression plasmid and pJDS246 together with 30 ng of a Td-tomato-encoding plasmid using the SE Cell Line 4D-Nucleofector™ X Kit (Lonza) according to the manufacturer's protocol. Cells are analyzed 2 days post-transfection using a BD LSRII flow cytometer. Transfections for optimizing gRNA/Cas9 plasmid concentration are performed in triplicate and all other transfections are performed in duplicate. PCR amplification is used for sequence verification of endogenous human genomic sites. PCR reactions are performed using Phusion Hot Start II high-fidelity DNA polymerase (NEB). Loci are amplified using touchdown PCR (98° C., 10 s; 72-62° C., −1° C./cycle, 15s; 72° C., 30 s] 10 cycles, [98° C., 10s; 62° C., 15s; 72° C., 30 s] 25 cycles). Alternatively, PCR for other targets is performed with 35 cycles at a constant annealing temperature of 68° C. or 72° C., and 3% DMSO or IM betaine, if necessary. PCR products are analyzed on a QIAXCEL capillary electrophoresis system to verify both size and purity. Validated products are treated with ExoSap-IT (Affymetrix) and sequenced by the Sanger method (MGH DNA Sequencing Core) to verify each target site.
Primary and secondary screening. The primary screen assayed a selection of unique chemical scaffolds derived from commercially available compounds and known bioactive molecular libraries (Table 7). Auto-fluorescent compounds were removed by a counter screen. Overall, the CAA was used to assay 122,409 small molecules with over 2,500 unique chemical scaffolds (FIG. 64F, Table 7). Of these compounds, 547 were selected as hits (Z score >3 in both replicates) for testing in orthogonal cell-based secondary assays. Hits were tested in duplicate in an eGFP disruption assay, wherein U2OS.eGFP.PEST cells^33 transfected with SpCas9 plasmid and eGFP-targeting gRNA plasmid were incubated with 20 μM of the compounds. In this assay, any compound that inhibited SpCas9 would rescue the loss of eGFP fluorescence. Here, toxic and auto-fluorescent compounds with a high GFP signal in cells were removed as false positives. […] Next, Applicants tested the 15 compounds in a luminescence-based gain-of-signal HiBiT knock-in assay, which involves SpCas9-mediated homology-directed tagging of GAPDH with a short peptide that luminesces upon complementation with a subunit derived from nanoluciferase.^34 Complementarily, the eGFP-disruption assay is fluorescence-based and involves error-prone DNA repair. As a counter-screen to remove false positives caused by cell death (viability <80%), the cell viability was measured after incubation.
For SAR studies and dose-response studies, 300,000 U2OS.eGFP.PEST cells were nucleofected with 300 ng of SpCas9 plasmid (Addgene #43861) and 30 ng of eGFP-targeting gRNA plasmid (Addgene #47511)^33 using SE Cell Line 4D-Nucleofector X Kit (Lonza) following the pulse program of DN-100. For RNP-based genome editing, 10 pmol of SpCas9 (GenScript #Z03385) and 12 pmol of gRNA were mixed and incubated for 5 min. […]

[1] = Cas9 = lower control, Ctrl = upper control
[2] = normalized, lower control about 0, upper control about 1

Sequence of SpCas9 (Q99ZW2 whole entry): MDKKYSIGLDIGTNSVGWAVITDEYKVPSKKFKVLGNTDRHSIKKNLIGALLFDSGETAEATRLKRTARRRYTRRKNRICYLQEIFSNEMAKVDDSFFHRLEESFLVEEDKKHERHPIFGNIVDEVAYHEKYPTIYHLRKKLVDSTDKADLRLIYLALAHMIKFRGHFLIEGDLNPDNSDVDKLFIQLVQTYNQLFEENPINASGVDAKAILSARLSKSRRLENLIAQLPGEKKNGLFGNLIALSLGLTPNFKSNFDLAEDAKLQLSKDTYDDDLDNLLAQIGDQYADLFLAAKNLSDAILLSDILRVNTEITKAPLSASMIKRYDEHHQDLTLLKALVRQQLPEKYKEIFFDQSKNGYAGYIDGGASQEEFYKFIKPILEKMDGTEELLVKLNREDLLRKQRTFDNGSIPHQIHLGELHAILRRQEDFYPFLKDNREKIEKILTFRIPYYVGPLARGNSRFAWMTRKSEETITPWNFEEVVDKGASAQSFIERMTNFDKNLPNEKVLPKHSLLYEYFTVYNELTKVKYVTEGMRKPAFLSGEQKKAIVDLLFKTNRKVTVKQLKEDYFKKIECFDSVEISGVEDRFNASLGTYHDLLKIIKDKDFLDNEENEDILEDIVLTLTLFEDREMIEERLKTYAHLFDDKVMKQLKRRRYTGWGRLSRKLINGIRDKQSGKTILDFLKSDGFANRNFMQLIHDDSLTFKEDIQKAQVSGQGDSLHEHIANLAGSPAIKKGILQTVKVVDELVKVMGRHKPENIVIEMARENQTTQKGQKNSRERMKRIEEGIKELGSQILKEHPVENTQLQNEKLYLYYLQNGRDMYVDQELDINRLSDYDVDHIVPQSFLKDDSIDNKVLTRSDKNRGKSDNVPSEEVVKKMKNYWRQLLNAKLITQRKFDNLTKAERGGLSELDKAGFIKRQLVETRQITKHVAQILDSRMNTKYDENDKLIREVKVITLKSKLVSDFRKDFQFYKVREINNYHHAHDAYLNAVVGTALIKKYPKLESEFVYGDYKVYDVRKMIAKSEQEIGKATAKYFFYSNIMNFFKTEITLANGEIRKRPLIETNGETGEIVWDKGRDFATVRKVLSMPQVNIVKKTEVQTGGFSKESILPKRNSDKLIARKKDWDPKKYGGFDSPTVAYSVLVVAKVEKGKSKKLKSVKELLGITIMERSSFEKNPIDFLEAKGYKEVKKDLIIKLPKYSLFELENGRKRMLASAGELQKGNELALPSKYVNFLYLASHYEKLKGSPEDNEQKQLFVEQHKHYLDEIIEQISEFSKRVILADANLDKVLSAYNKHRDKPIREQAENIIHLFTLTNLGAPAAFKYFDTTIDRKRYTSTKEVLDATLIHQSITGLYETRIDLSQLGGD

| SMILES | Normalized Z rep1 | Z score Rep1 | SpCas9 eGFP disruption Rep1 | Normalized Z rep2 | Z socre Rep2 | SpCas9 eGFP disruption Rep2 | SpCas9 eGFP disruption Rep1 [1] | Normalized Z rep1 [2] | SpCas9 eGFP disruption Rep2 [1] | Normalized Z rep2 [2] |
| --- | --- | --- | --- | --- | --- | --- | --- | --- | --- | --- |
| COc1ccc(-c2nnc3sc(-c4cccnc4)nn23)cc1OC [Compound D727-0025] | −0.28 | −2.04 | 60.269 | −0.11 | −1.05 | 59.908 | – | – | – | – |
| Cc1ccc(-c2nn3c(-c4cccnc4)nnc3s2)cc1 [Compound D727-0047] | −0.34 | −2.47 | 58.846 | −0.29 | −2.72 | 54.891 | – | – | – | – |
| Brc1cccc(-c2nn3c(-c4cccnc4)nnc3s2)c1 [Compound D727-0051] | 0.02 | 0.13 | 67.429 | 0.08 | 0.79 | 65.459 | – | – | – | – |
| c1cncc(-c2nnc3sc(Cc4ccc5c(c4)OCCO5)nn23)c1 [Compound D727-0088] | −0.24 | −1.77 | 61.161 | −0.08 | −0.75 | 60.83 | – | – | – | – |
| COc1ccc(Cc2nnc3sc(-c4ccccc4OC)nn23)cc1 [Compound D727-0159] | −0.57 | −4.09 | 53.496 | −0.23 | −2.11 | 56.714 | – | – | – | – |
| Cc1nc2ccccc2n1Cc1nnc2sc(-c3cccnc3)nn12 [Compound D727-0182] | −0.45 | −3.22 | 56.36 | 0.14 | 1.30 | 67.01 | – | – | – | – |
| Fc1cccc(-c2nnc3sc(CCCc4ccccc4)nn23)c1 [Compound D727-0404] | −0.14 | −0.99 | 63.741 | −0.34 | −3.13 | 53.633 | – | – | – | – |
| Brc1cccc(-c2nn3c(-c4ccccn4)nnc3s2)c1 [Compound D727-0489] | −0.24 | −1.76 | 61.183 | −0.06 | −0.58 | 61.347 | – | – | – | – |
| Clc1ccccc1OCc1nn2c(-c3ccccn3)nnc2s1 [Compound D727-0524] | −0.39 | −2.83 | 57.663 | −0.16 | −1.47 | 58.659 | – | – | – | – |
| c1ccc(-c2nnc3sc(-c4ccc5c(c4)OCO5)nn23)nc1 [Compound D727-0536] | −0.16 | −1.18 | 63.106 | −0.09 | −0.86 | 60.482 | – | – | – | – |
| COc1ccc(CCc2nnc3sc(-c4ccncc4)nn23)cc1OC [Compound D727-0712] | −0.16 | −1.13 | 63.284 | −0.29 | −2.66 | 55.062 | – | – | – | – |
| Cc1nn(-c2ccccc2)c(C)c1CCc1nnc2sc(-c3ccccc3F)nn12 [Compound D727-0713] | – | 0.38 | – | – | 1.08 | – | 68.26 | 0.05 | 66.347 | 0.12 |
| COc1ccc(-c2nn3c(-c4ccc5ccccc5n4)nnc3s2)cc1OC [Compound D727-0743] | −0.03 | −0.23 | 66.254 | −0.13 | −1.19 | 59.503 | – | – | – | – |
